These results are taken from US20240287076A1, “COMPOUNDS FOR TARGETING DEGRADATION OF BRUTON'S TYROSINE KINASE” (BIOGEN MA INC., priority 2021, published 2024).

Where only a bound is given, the exact number is not on record here.

The target in the assay is T1, BTK (Homo sapiens, UniProt Q06187).
T1 construct: The GM01501.3 cell line endogenously expresses BTK with a HiBiT fusion tag via CRISPR knock-in at its C-terminal region; endogenous in cells; host or cells: GM01501.3 (GM01501 cells engineered by CRISPR knock-in of HiBiT at the BTK locus)
T1 sequence (Q06187 whole entry, the tested form may be a part): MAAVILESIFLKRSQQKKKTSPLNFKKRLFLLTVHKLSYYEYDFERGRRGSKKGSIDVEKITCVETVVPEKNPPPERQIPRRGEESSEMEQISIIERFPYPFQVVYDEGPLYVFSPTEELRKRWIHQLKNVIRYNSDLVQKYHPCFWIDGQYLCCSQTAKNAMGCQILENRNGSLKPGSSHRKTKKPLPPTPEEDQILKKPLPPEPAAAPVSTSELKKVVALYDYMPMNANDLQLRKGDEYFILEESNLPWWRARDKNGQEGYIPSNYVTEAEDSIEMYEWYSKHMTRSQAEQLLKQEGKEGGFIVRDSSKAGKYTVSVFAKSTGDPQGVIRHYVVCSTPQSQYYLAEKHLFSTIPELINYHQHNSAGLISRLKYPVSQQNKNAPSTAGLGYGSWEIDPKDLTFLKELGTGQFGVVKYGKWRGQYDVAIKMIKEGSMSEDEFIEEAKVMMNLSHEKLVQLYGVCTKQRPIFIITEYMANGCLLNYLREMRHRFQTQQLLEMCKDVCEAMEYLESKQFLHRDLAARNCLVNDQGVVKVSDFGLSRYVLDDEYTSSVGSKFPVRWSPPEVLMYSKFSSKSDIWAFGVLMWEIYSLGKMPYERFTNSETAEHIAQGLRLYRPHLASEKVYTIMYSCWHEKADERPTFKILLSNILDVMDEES
Briefly: BTK degradation assay using the HiBiT Method (Nano-Glo HiBiT Lytic Assay, GM01501.3 cells). Format: cell-based. The following applies: HiBiT Degradation on GM01501.3 BTK @ 6 hours. The protocol:
Selected compounds were tested in a BTK degradation assay using the HiBiT Method. Park Memorial Institute (RPM1) 1640 Medium with phenol red, L-Glutamine, Sodium Pyruvate, and fetal bovine serum (FBS) were purchased from Gibco (Grand Island, NY, USA). Nano-Glo® HiBiT Lytic Assay System was purchased from Promega (Madison, WI, USA). GM01501 cells were obtained from the NIGMS Human Genetic Cell Repository at the Coriell Institute for Medical Research. The GM01501.3 cell line endogenously expresses BTK with a HiBiT fusion tag via CRISPR knock-in at its C-terminal region. It was engineered by electroporation with the Neon Transfection System (Themo Fisher Scientific), according to manufacturer indications. Electroporation conditions: 1 pulse of 1,350 V for 30 ms for 0.5×10_6 cells. Cell culture flasks and 384-well microplates were acquired from VWR (Radnor, PA, USA). BTK degradation was evaluated by quantification of luminescent signal using Nano-Glo® HiBiT Lytic Assay kit. Test compounds were added to the 384-well plate from a top concentration of 10 μM with 11 points, half log titration in duplicates. GM01501.3 cells were added into 384-well plates at a cell density of 10,000 cells per well in a total volume of 30 μl. The plates were kept at 37° C. with 5% CO2 for 6 hours. Negative control wells included cells treated with DMSO only and positive control wells included only growing media, without Nano-Glo® HiBiT Lytic reagent. After a 6-hour incubation, Nano-Glo® HiBiT Lytic Assay reagent was added to the cells following manufacturer indications. Luminescence was acquired on EnVision™ Multilabel Reader (PerkinElmer, Santa Clara, CA, USA). […] “++++” represents a DC50 value of less than 100 nM. “+++” represents a DC50 value of 100 nM-500 nM. “++” represents a DC50 value of 500 nM-1000 nM. “+” represents a DC50 value of greater than 1000 nM.
`Cc1cc(-c2ncnn3cc(-c4ccc(CN5CCC(c6ccc7c(N8CCC(=O)NC8=O)nn(C)c7c6)CC5)c(F)c4)cc23)ccc1CNC(=O)c1noc(C(C)(C)C)n1` [Example 245, 5-(tert-butyl)-N-(4-(6-(4-((4-(3-(2,4-dioxotetrahydropyrimidin-1(^2H)-yl)-1-methyl-1H-indazol-6-yl)piperidin-1-yl)methyl)-3-fluorophenyl)pyrrolo[2,1-f][1,2,4]triazin-4-yl)-2-methylbenzyl)-1,2,4-oxadiazole-3-carboxamide] had a DC50 of less than 100 nM.

With `CN(CCOc1ccc(OC2CCC(=O)NC2=O)cc1)Cc1ccc(-c2cc3c(-c4ccc(CNC(=O)c5noc(C(C)(C)C)n5)c(F)c4)ncnn3c2)nc1` (centres unmarked) [Example 229, 5-(tert-butyl)-N-(4-(6-(5-(((2-(4-((2,6-dioxopiperidin-3-yl)oxy)phenoxy)ethyl)(methyl)amino)methyl)pyridin-2-yl)pyrrolo[2,1-f][1,2,4]triazin-4-yl)-2-fluorobenzyl)-1,2,4-oxadiazole-3-carboxamide], the DC50 was less than 100 nM.

In turn, `CC(C)(C)c1nc(C(=O)NCc2ccc(-c3ncnn4cc(CCC(F)CN5CCC(c6ccc(NC7CCC(=O)NC7=O)cc6)CC5)cc34)cc2F)no1` (centres unmarked) [Example 170, 5-tert-butyl-N-[[4-[6-[4-[4-[4-[(2,6-dioxo-3-piperidyl)amino]phenyl]-1-piperidyl]-3-fluoro-butyl]pyrrolo[2,1-f][1,2,4]triazin-4-yl]-2-fluoro-phenyl]methyl]-1,2,4-oxadiazole-3-carboxamide] had a DC50 of less than 100 nM.

As to `Cc1cc(-c2ncnn3cc(-c4ccc(CN5CCC(c6ccc(NC7CCC(=O)NC7=O)cc6C(F)(F)F)CC5)cc4)cc23)ccc1CNC(=O)c1noc(C(C)(C)C)n1` (centres unmarked) [Example 27, 5-tert-butyl-N-[[4-[6-[4-[[4-[4-[(2,6-dioxo-3-piperidyl)amino]-2-(trifluoromethyl)phenyl]-1-piperidyl]methyl]phenyl]pyrrolo[2,1-f][1,2,4]triazin-4-yl]-2-methyl-phenyl]methyl]-1,2,4-oxadiazole-3-carboxamide], the DC50 was less than 100 nM.

With `Cc1cc(-c2ncnn3cc(-c4ccc5c(c4)CN(CCCc4ccc(NC6CCC(=O)NC6=O)cc4)CC5)cc23)ccc1CNC(=O)c1noc(C(C)(C)C)n1` (centres unmarked) [Example 59, 5-tert-butyl-N-[[4-[6-[2-[3-[4-[(2,6-dioxo-3-piperidyl)amino]phenyl]propyl]-3,4-dihydro-1H-isoquinolin-7-yl]pyrrolo[2,1-f][1,2,4]triazin-4-yl]-2-methyl-phenyl]methyl]-1,2,4-oxadiazole-3-carboxamide], the DC50 is less than 100 nM.

On to `CC(C)(C)c1nc(C(=O)NCc2ccc(-c3ncnn4cc(CCN5CCC(c6ccc(C7(C)CCC(=O)NC7=O)cc6)CC5)cc34)cc2F)no1` (centres unmarked) [Example 121, 5-tert-butyl-N-[[2-fluoro-4-[6-[2-[4-[4-(3-methyl-2,6-dioxo-3-piperidyl)phenyl]-1-piperidyl]ethyl]pyrrolo[2,1-f][1,2,4]triazin-4-yl]phenyl]methyl]-1,2,4-oxadiazole-3-carboxamide], for which the half-maximal degradation concentration (DC50) was 100 to 500 nM.

In the case of `Cc1cc(-c2ncnn3cc(CCN4CCC(c5ccc6c(N7CCC(=O)NC7=O)noc6c5)CC4)cc23)ccc1CNC(=O)c1noc(C(C)(C)C)n1` [Example 272, 5-(tert-butyl)-N-(4-(6-(2-(4-(3-(2,4-dioxotetrahydropyrimidin-1(2H)-yl)benzo[d]isoxazol-6-yl)piperidin-1-yl)ethyl)pyrrolo[2,1-f][1,2,4]triazin-4-yl)-2-methylbenzyl)-1,2,4-oxadiazole-3-carboxamide], the DC50 is greater than 1000 nM.

For the compound `Cc1cc(-c2ncnn3cc(-c4ccc(CN5CCC(c6ccc(NC7CCC(=O)NC7=O)cc6)CC5)cc4)cc23)ccc1CNC(=O)c1ccc(C(F)F)cn1` (centres unmarked) [Example 96, 5-(difluoromethyl)-N-[[4-[6-[4-[[4-[4-[(2,6-dioxo-3-piperidyl)amino]phenyl]-1-piperidyl]methyl]phenyl]pyrrolo[2,1-f][1,2,4]triazin-4-yl]-2-methyl-phenyl]methyl]pyridine-2-carboxamide], the DC50 is less than 100 nM.
